Consider 36 compounds from US20260315604A1, “OTUB1 Small-Molecule Binders and OTUB1-recruiting Deubiquitinase-targeting Chimeras (DUBTACs)” (ICAHN SCHOOL OF MEDICINE AT MOUNT SINAI, priority 2023, published 2026).

The target of the assay is T1, Human OTUB1 wild-type (Homo sapiens, UniProt Q96FW1).
T1 construct: His tag (N); made in house; host or cells: E. coli BL21-CodonPlus (DE3)-RIPIL
Nature of the assay: Covalent modification of OTUB1 (adduct formation), mass spectrometry-based assay (OTUB1 covalent binders; selected CFTR or cGAS based bivalent compounds). In kind it is binding. Conditions: covalent adduct formation with OTUB1 protein. The procedure, abridged:
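His-tagged human OTUB1 (10 μM), E. coli-expressed, incubated with compound (2500 μM) in 50 mM Tris-HCl pH 7.5, 150 mM NaCl, 0.5 mM TCEP for 1 h at room temperature. Adduct detected by intact-protein LC/ESI-TOF mass spectrometry after buffer exchange; duplicates.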

T1 sequence (Q96FW1 whole entry): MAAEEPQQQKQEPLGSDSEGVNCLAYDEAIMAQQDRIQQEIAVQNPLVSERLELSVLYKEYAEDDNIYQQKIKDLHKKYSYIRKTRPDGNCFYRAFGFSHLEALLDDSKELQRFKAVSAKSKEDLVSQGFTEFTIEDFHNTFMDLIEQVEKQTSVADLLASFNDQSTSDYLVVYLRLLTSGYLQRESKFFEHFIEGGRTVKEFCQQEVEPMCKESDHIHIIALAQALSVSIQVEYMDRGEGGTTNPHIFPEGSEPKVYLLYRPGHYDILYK

Regarding `Cc1ccc(C(=O)N2CC3CC(C2)N3C(=O)C#CC(C)(C)N(C)C)s1` [XS209-75, 4-(dimethylamino)-4-methyl-1-(3-(5-methylthiophene-2-carbonyl)-3,6-diazabicyclo[3.1.1]heptan-6-yl)pent-2-yn-1-one], the “% of OTUB1 modified” value amounted to 75%.

Consider `Cc1cnc(C(=O)N2CC3CC(C2)N3C(=O)/C=C/CN(C)C)o1` [XS209-92, (E)-4-(dimethylamino)-1-(3-(5-methyloxazole-2-carbonyl)-3,6-diazabicyclo[3.1.1]heptan-6-yl)but-2-en-1-one], for which the “% of OTUB1 modified” value turned out to be 15%.

Consider `Cc1ccc(NC(=O)C2(O)CN(C(=O)C#CCN(C)C)C2)s1` [XS209-99, 1-(4-(dimethylamino)but-2-ynoyl)-3-hydroxy-N-(5-methylthiophen-2-yl)azetidine-3-carboxamide], for which the “% of OTUB1 modified” value amounted to 98%.

For `Cc1ccc(NC(=O)C2(O)CN(C(=O)C#CC(C)(C)N(C)C)C2)s1` [XS209-100, 1-(4-(dimethylamino)-4-methylpent-2-ynoyl)-3-hydroxy-N-(5-methylthiophen-2-yl)azetidine-3-carboxamide], the “% of OTUB1 modified” value was 25%.

In the case of `CC(=O)N1CC2CC(C1)N2C(=O)C#CCN(C)C` [XS209-101, 1-(3-acetyl-3,6-diazabicyclo[3.1.1]heptan-6-yl)-4-(dimethylamino)but-2-yn-1-one], the “% of OTUB1 modified” value amounted to 100%.

Turning to `Cc1ccc(NC(=O)C2CC3CCC(C2)N3C(=O)/C=C/CN(C)C)s1` (stereo not drawn) [XS209-122, (E)-8-(4-(dimethylamino)but-2-enoyl)-N-(5-methylthiophen-2-yl)-8-azabicyclo[3.2.1]octane-3-carboxamide], the “% of OTUB1 modified” value came out at 2%.

In the case of `Cc1ccc(C(=O)NC2CC3CCC(C2)N3C(=O)/C=C/CN(C)C)s1` (stereo not drawn) [XS209-139, (E)-N-(8-(4-(dimethylamino)but-2-enoyl)-8-azabicyclo[3.2.1]octan-3-yl)-5-methylthiophene-2-carboxamide], the “% of OTUB1 modified” value is 2%.

As for `Cc1ccc(C(=O)Nc2ccc(NC(=O)/C=C/CN(C)C)cc2)s1` [XS209-165, (E)-N-(4-(4-(dimethylamino)but-2-enamido)phenyl)-5-methylthiophene-2-carboxamide], the “% of OTUB1 modified” value is on record as 20%.

On to `CCCC(=O)N1CC2CC(C1)N2C(=O)C#CCN(C)C` [XS209-166, 1-(3-butyryl-3,6-diazabicyclo[3.1.1]heptan-6-yl)-4-(dimethylamino)but-2-yn-1-one], for which the “% of OTUB1 modified” value stood at 90%.

Regarding `CCCC(=O)N1CC2CC(C1)N2C(=O)C#CC(C)(C)N(C)C` [XS209-168, 1-(3-butyryl-3,6-diazabicyclo[3.1.1]heptan-6-yl)-4-(dimethylamino)-4-methylpent-2-yn-1-one], the “% of OTUB1 modified” value came out at 15%.

Consider `CN(C)CC#CC(=O)N1CC(C)(C(=O)Nc2cc3ccccc3s2)C1` [XS209-175, N-(benzo[b]thiophen-2-yl)-1-(4-(dimethylamino)but-2-ynoyl)-3-methylazetidine-3-carboxamide], for which the “% of OTUB1 modified” value came to 90%.

As to `CN(C)C/C=C/C(=O)N1CC(O)(C(=O)Nc2cc3c(s2)CCCC3)C1` [XS209-176, (E)-1-(4-(dimethylamino)but-2-enoyl)-3-hydroxy-N-(4,5,6,7-tetrahydrobenzo[b]thiophen-2-yl)azetidine-3-carboxamide], the “% of OTUB1 modified” value is on record as 55%.

As to `CC(=O)N1CCN(c2ccc(C(=O)N3CC4CC(C3)N4C(=O)/C=C/CN(C)C)s2)CC1` [XS209-184, (E)-1-(3-(5-(4-acetylpiperazin-1-yl)thiophene-2-carbonyl)-3,6-diazabicyclo[3.1.1]heptan-6-yl)-4-(dimethylamino)but-2-en-1-one], the “% of OTUB1 modified” value is given as 80%.

As to `CN(C)C/C=C/C(=O)N1C2CC1CN(C(=O)c1ccc(N3CCN(C)CC3)s1)C2` [XS209-185, (E)-4-(dimethylamino)-1-(3-(5-(4-methylpiperazin-1-yl)thiophene-2-carbonyl)-3,6-diazabicyclo[3.1.1]heptan-6-yl)but-2-en-1-one], the “% of OTUB1 modified” value amounted to 85%.

Take `CN(C)CC#CC(=O)N1CC(C(=O)Nc2cc3ccccc3s2)C1` [XS224-106, N-(benzo[b]thiophen-2-yl)-1-(4-(dimethylamino)but-2-ynoyl)azetidine-3-carboxamide]: the “% of OTUB1 modified” value was 98%.

As for `CN(C)C(C)(C)C#CC(=O)N1CC(C(=O)Nc2cc3ccccc3s2)C1` [XS224-107, N-(benzo[b]thiophen-2-yl)-1-(4-(dimethylamino)-4-methylpent-2-ynoyl)azetidine-3-carboxamide], the “% of OTUB1 modified” value was 60%.

Regarding `CN(C)CC#CC(=O)N1CC(C(=O)Nc2cc3c(s2)CCCC3)C1` [XS224-108, 1-(4-(dimethylamino)but-2-ynoyl)-N-(4,5,6,7-tetrahydrobenzo[b]thiophen-2-yl)azetidine-3-carboxamide], the “% of OTUB1 modified” value is listed as 100%.

As for `CN(C)C(C)(C)C#CC(=O)N1CC(C(=O)Nc2cc3c(s2)CCCC3)C1` [XS224-109, 1-(4-(dimethylamino)-4-methylpent-2-ynoyl)-N-(4,5,6,7-tetrahydrobenzo[b]thiophen-2-yl)azetidine-3-carboxamide], the “% of OTUB1 modified” value stood at 75%.

As to `Cc1ccc(NC(=O)C2CN(C(=O)C#CCN(C)C)C2)s1` [XS224-110, 1-(4-(dimethylamino)but-2-ynoyl)-N-(5-methylthiophen-2-yl)azetidine-3-carboxamide], the “% of OTUB1 modified” value is 100%.

Regarding `Cc1ccc(NC(=O)C2CN(C(=O)C#CC(C)(C)N(C)C)C2)s1` [XS224-111, 1-(4-(dimethylamino)-4-methylpent-2-ynoyl)-N-(5-methylthiophen-2-yl)azetidine-3-carboxamide], the “% of OTUB1 modified” value is 53%.

Turning to `CC(C)c1ccc(NC(=O)C2CN(C(=O)C#CCN(C)C)C2)s1` [XS224-116, 1-(4-(dimethylamino)but-2-ynoyl)-N-(5-isopropylthiophen-2-yl)azetidine-3-carboxamide], the “% of OTUB1 modified” value is given as 100%.

With `CC(C)c1ccc(NC(=O)C2CN(C(=O)C#CC(C)(C)N(C)C)C2)s1` [XS224-117, 1-(4-(dimethylamino)-4-methylpent-2-ynoyl)-N-(5-isopropylthiophen-2-yl)azetidine-3-carboxamide], the “% of OTUB1 modified” value came out at 60%.

For the compound `CN(C)CC#CC(=O)N1CC(C(=O)Nc2csc3ccccc23)C1` [XS224-118, N-(benzo[b]thiophen-3-yl)-1-(4-(dimethylamino)but-2-ynoyl)azetidine-3-carboxamide], the “% of OTUB1 modified” value worked out at 10%.

In the case of `CN(C)C(C)(C)C#CC(=O)N1CC(C(=O)Nc2csc3ccccc23)C1` [XS224-119, N-(benzo[b]thiophen-3-yl)-1-(4-(dimethylamino)-4-methylpent-2-ynoyl)azetidine-3-carboxamide], the “% of OTUB1 modified” value was found to be 60%.

Take `Cc1ccc(C(=O)N2CC(NC(=O)/C=C/CN(C)C)C2)s1` [XS224-143, (E)-4-(dimethylamino)-N-(1-(5-methylthiophene-2-carbonyl)azetidin-3-yl)but-2-enamide]: the “% of OTUB1 modified” value stood at 7%.

As for `Cc1ccc(C(=O)N2CC(NC(=O)C#CCN(C)C)C2)s1` [XS224-144, 4-(dimethylamino)-N-(1-(5-methylthiophene-2-carbonyl)azetidin-3-yl)but-2-ynamide], the “% of OTUB1 modified” value came out at 90%.

As to `Cc1ccc(C(=O)N2CC(NC(=O)C#CC(C)(C)N(C)C)C2)s1` [XS224-145, 4-(dimethylamino)-4-methyl-N-(1-(5-methylthiophene-2-carbonyl)azetidin-3-yl)pent-2-ynamide], the “% of OTUB1 modified” value was 60%.

In the case of `Cc1ccc(C(=O)NC2CC(NC(=O)C#CCN(C)C)C2)s1` (stereo not drawn) [XS224-148, N-(3-(4-(dimethylamino)but-2-ynamido)cyclobutyl)-5-methylthiophene-2-carboxamide], the “% of OTUB1 modified” value is 90%.

Regarding `Cc1ccc(C(=O)NC2CC(NC(=O)C#CC(C)(C)N(C)C)C2)s1` (stereo not drawn) [XS224-149, N-(3-(4-(dimethylamino)-4-methylpent-2-ynamido)cyclobutyl)-5-methylthiophene-2-carboxamide], the “% of OTUB1 modified” value is listed as 15%.

As to `Cc1ccc(C(=O)NC2CN(C(=O)C#CCN(C)C)C2)s1` [XS224-150, N-(1-(4-(dimethylamino)but-2-ynoyl)azetidin-3-yl)-5-methylthiophene-2-carboxamide], the “% of OTUB1 modified” value amounted to 73%.

For `CN(C)C/C=C/C(=O)N1CC(NC(=O)c2cc3ccccc3s2)C1` [XS224-154, (E)-N-(1-(4-(dimethylamino)but-2-enoyl)azetidin-3-yl)benzo[b]thiophene-2-carboxamide], the “% of OTUB1 modified” value is listed as 80%.

Take `CN(C)CC#CC(=O)N1CC(NC(=O)c2cc3ccccc3s2)C1` [XS224-155, A-(1-(4-(dimethylamino)but-2-ynoyl)azetidin-3-yl)benzo[b]thiophene-2-carboxamide]: the “% of OTUB1 modified” value is listed as 97%.

With `CN(C)C(C)(C)C#CC(=O)N1CC(NC(=O)c2cc3ccccc3s2)C1` [XS224-156, N-(1-(4-(dimethylamino)-4-methylpent-2-ynoyl)azetidin-3-yl)benzo[b]thiophene-2-carboxamide], the “% of OTUB1 modified” value came to 85%.

For `CN(C)C/C=C/C(=O)N1CC(NC(=O)c2cc3c(s2)CCCC3)C1` [XS224-157, (E)-N-(1-(4-(dimethylamino)but-2-enoyl)azetidin-3-yl)-4,5,6,7-tetrahydrobenzo[b]thiophene-2-carboxamide], the “% of OTUB1 modified” value turned out to be 49%.

For the compound `CN(C)CC#CC(=O)N1CC(NC(=O)c2cc3c(s2)CCCC3)C1` [XS224-158, N-(1-(4-(dimethylamino)but-2-ynoyl)azetidin-3-yl)-4,5,6,7-tetrahydrobenzo[b]thiophene-2-carboxamide], the “% of OTUB1 modified” value amounted to 92%.

For `CN(C)C(C)(C)C#CC(=O)N1CC(NC(=O)c2cc3c(s2)CCCC3)C1` [XS224-159, N-(1-(4-(dimethylamino)-4-methylpent-2-ynoyl)azetidin-3-yl)-4,5,6,7-tetrahydrobenzo[b]thiophene-2-carboxamide], the “% of OTUB1 modified” value turned out to be 92%.
